# Test results as given in patent publication US6969590B2, “Use of a polypeptide for treatment of pruritus in animals” (Zengen, Inc., priority 2001, dated 2005).
# “Also recorded” adds a separate entry of the source.
# How the values were obtained:
# [1] = test system: inflammation induced in the hind paw; assay: Kappa carrageenan-induced hind paw inflammation, spinal cord intact or transected; format: in vivo, BALB/c mice; conditions: for inhibition of hind paw inflammation: central administration, spinal cord intact mice
# Protocol: Because surgical dissection of trigeminal structures that innervate the ear of the mouse is very difficult, tests to learn whether descending neural pathways are essential to the anti-inflammatory activity of centrally administered α-MSH peptides were performed in mice with inflammation induced in a hind paw. In these experiments, each animal was anesthetized with pentobarbital sodium solution as above. Baseline footpad thickness of both hind paws was measured with a spring-loaded micrometer (Swiss Precision Instruments, Los Angeles, Calif.). Paw thickness was expressed in units of 10^−3 cm; average thickness of unstimulated paws was 171.5×10^−3 cm across shipments of animals. Kappa carrageenan (Sigma) dissolved in saline (0.05%, 20 μl) was injected (28 gauge allergy test syringe) into one footpad, and saline (20 μl) was injected into the other. For the analyses, the increase in thickness of the control saline-injected paw of each animal was subtracted from that of the carrageenan-injected paw, to eliminate the influence of mechanical injury and volume of the injected fluid. To be certain that mice with severed spinal cords can react to anti-inflammatory agents, prednisolone (2.5 mg/mouse (IP injection)) was administered to 10 mice with spinal transection and inflammation induced by carrageenan. Treatment with the locally acting steroid reduced swelling up to 29% (average, relative to saline controls) at 4.5 h. after carrageenan.
# However, a standardized crushing of lumbar vertebrae with a hemostat was effective in severing the cord; no deaths were caused by this treatment. […] The experiments were limited to 4.5 h to reduce problems of bowel and bladder dysfunction. Immediately after the 4.5 h measurements all mice were killed with an overdose of sodium pentobarbital.
# Because of the size of the experiments and the requirement for several shipments of animals over time, several experiments were performed, each with complete treatment and control groups drawn from the same shipment of mice. Omnibus analysis of variance techniques (Dynastat, Washington, D.C.) were used to test overall differences among group means. Tukey's protected t test was used to compare individual means. Probability values of <0.05 were considered significant.
# TNF-α and iNOS mRNA = assay: Northern blot of TNF-α and iNOS mRNA in activated microglia; format: cell-based, murine
# Protocol: Total cellular RNA was extracted from 10^6 adherent microglial cells plated in six-well tissue culture plates (Corning). Electrophoresis of RNA samples (10 μg/lane) was performed in 1% agarose/2.2 M formaldehyde gels and the gels subsequently blotted onto nylon filters by capillary action and baked for 2 h before prehybridization. The cDNA fragments encoding murine TNF-α and mouse macrophage iNOS were ^32P-labeled using the Ready-To-Go DNA Labeling Kit (Pharmacia, Uppsala, Sweden) before hybridization of nylon filters and autoradiography. Blots were subsequently rehybridized with human glyceraldehyde-3-phosphate dehydrogenase (G-3-PDH) cDNA probe as an internal control (Clontech Laboratories, Inc., Palo Alto, Calif.).
# human neutrophils = assay: C. albicans killing by human neutrophils; format: cell-based; conditions: 2 hours at 37° C., vs. medium
# Protocol: Venous blood (20 ml) from healthy volunteers was anticoagulated with heparin. Neutrophils were isolated using dextran sedimentation and Ficoll-Hypaque (Sigma Chemical Co., St. Louis, Mi., USA) centrifugation. Erythrocytes were lysed via hypotonic shock. Neutrophils represented at least 97% of the cell suspension. Cell viability, estimated by trypan blue exclusion, was >98%. Neutrophils were suspended to a final concentration in HBSS. C. albicans (1×10^6) were opsonized with human AB serum in a shaking water bath for 30 minutes at 37° C. Organisms were then incubated with neutrophils in medium or in medium with α-MSH (1-13) or α-MSH (11-13) in concentrations of 10^−15 M to 10^−4 M in a shaking water bath for 2 hours at 37° C. After incubation, the culture tubes were placed on ice to stop growth and extracellular organisms were washed twice with centrifugation at 1000×g at 4° C. A 2.5% sodium desoxycholoate solution was added to obtain a suspension of 10^6 cells/ml. Two 1/100 serial dilutions in HBSS were made to obtain a final suspension of 100 cells/ml. Aliquots of 1 ml were dispensed on blood agar plates and incubated for 48 hours at 37° C. Colony forming units (CFUs) were counted at the end of the incubation period. Experiments were run in triplicate and repeated using blood from 5 different donors.
# C. albicans [2] = assay: C. albicans colony forming units (candidacidal activity); format: cell-based
# Protocol: C. albicans (1×10^6/ml in HBSS) was incubated in the presence or absence or α-MSH (1-13) or α-MSH (11-13) at concentrations in the range of 10^−15 M to 10^−6 M for 2 hours at 37° C. Cells were then washed in cold distilled water and diluted with HBSS to a concentration of 100 organisms/ml. One-ml aliquots were dispensed on blood agar plates and incubated for 48 hours at 37° C. Organism viability was estimated from the number of colonies formed. In subsequent experiments using familiar procedures we compared activity of α-MSH (4-10), α-MSH (6-13), α-MSH (11-13), ACTH (1-39), (18-39) and fluconazole, the latter an established antifungal agent. Melanocortin peptides and fluconazole were tested in concentrations of 10^−6 M to 10^−4 M. There were at least six replicates for each concentration of peptide.
# C. albicans [3] = assay: Horse serum-induced germ tube formation of C. albicans; format: cell-based; conditions: 10^−6M, 60 minutes at 37° C.
# Protocol: C. albicans from stationary phase cultures were washed twice with distilled water and suspended in HBSS to a final concentration of 2×10^6/ml. Hyphal growth was induced by addition of 10% inactivated horse serum (GIBCO/BRL, Great Britain) to yeast incubated for 45 minutes at 37° C. with continuous shaking. Horse serum was removed by washing cells twice with HBSS and incubation was continued for 60 minutes at 37° C. in the presence of α-MSH (1-13), α-MSH (6-13) or α-MSH (11-13) at a concentration of 10^−6M with continuous shaking. The percentage of filamentous cells was evaluated under a light microscope with the aid of hemocytometer. Experiments were run in triplicate and at least 200 cells were scored. Photomicrographs were taken with an MC100 camera attached to an Axioskop Zeiss microscope.
sequence,measurement,setting,value
SYSMEHFRWGKPV [α-MSH (1-13)],inhibition of hind paw inflammation,[1]; 3 h,57%
same,inhibition of hind paw inflammation,[1]; 4.5 h,29%
same,anti-inflammatory effect after spinal cord transection,[1]; centrally administered,significantly reduced the anti-inflammatory effect
same,anti-inflammatory effect after spinal cord transection,[1]; given intraperitoneally,"significant, although smaller, inhibitory effect later in the period"
same,mRNA for TNF-α and iNOS (Northern blot),TNF-α and iNOS mRNA,inhibition of mRNA transaction for TNF-α and iNOS
same,killing of C. albicans by human neutrophils,human neutrophils,enhanced the killing
same,relative potency in reducing C. albicans viability,C. albicans [2]; 10^−4M melanocortin peptides,the most effective
same,effect on C. albicans colony forming units (CFU),"C. albicans [2]; 2 hours at 37° C., vs. control",greatly reduced; also recorded: significantly decreased C. albicans colony forming units; also recorded: inhibitory effect
same,reduction in the number of filamentous cells (inhibition of germination),C. albicans [3],28-32%
